{
  "source": "patent US4704407A",
  "about": "“Soluble dobutamine salts” (Eli Lilly and Company, priority 1986, dated 1987)",
  "key": {"[1]": {"test": "Solubility of dobutamine salts (as dobutamine base, in water)", "format": "physicochemical", "description": "8.3 Millimoles of dobutamine free base and 8.7 millimoles of one of each of the following acids: glycolic, (+)-tartaric, gluconic, lactobionic and glucoheptonic, were mixed under an N2 atmosphere were an amount of 0.035 g aqueous sodium bisulfite dissolved in water for injection such that the final volume was […]; i.e., 100 mg/ml of dobutamine base. If required, the salt-forming mixture was warmed to expedite solution of dobutamine base. The solid salt can be obtained from the solution, if desired, by evaporation of the solvent.\nThe solubilities of each of the dobutamine salts thus prepared was in excess of 100 mg/ml. By contrast, a saturated solution of dobutamine hydrochloride provides about 25 mg/ml of dobutamine.\nFurthermore, with any of the acids named, stereoisomers thereof can also be used rather than a racemate. Dobutamine content of all solutions is monitored with UV."}, "[2]": {"conditions": "cited from earlier work"}, "[3]": {"test": "Storage stability of concentrate solutions", "format": "physicochemical", "conditions": "at 5° C., N2 atmosphere, with sodium bisulfite, pH=3.65", "text": "In a repeat with (-) tartaric acid, 58.6 g of dobutamine hydrochloride in deaerated water were neutralized with dilute aqueous sodium hydroxide in the presence of a peroxide scavenger under N2; pH=11.09. The precipitate of dobutamine base was washed with the […] and dried. The filter cake was dissolvd in 2 l of deaerated water followed by 26.1 g of (-)-tartaric acid and 0.8 g of sodium bisulfite; pH=3.65. The solution was filtered and then stored at […], always under an N2 atmosphere. Such stored concentrate solutions are stable for 12 months or more at 5° C."}, "[4]": {"conditions": "ascribed to dobutamine, U.S. Pat. No. 3,932,461"}, "[5]": {"conditions": "U.S. Pat. No. 3,932,461 (Suh I)"}},
  "note": "Structures can show the parent of a compound that is named as a salt.",
  "data": [
    {"molecule": "CC(CCc1ccc(O)cc1)NCCc1ccc(O)c(O)c1", "note": "(racemic) [dobutamine salt of (±)-tartaric acid]", "values": [
      {"measurement": "solubility of the dobutamine salt (in words)", "setting": "[1]; salts with further tartaric acid isomers", "value": "high solubility"}
    ]},
    {"molecule": "CC(CCc1ccc(O)cc1)NCCc1ccc(O)c(O)c1", "note": "(racemic) [dobutamine, (±)-N-[3-(4-hydroxyphenyl)-1-methylpropyl]2-(3,4-dihydroxyphenyl) ethylamine]", "values": [
      {"measurement": "solubility in water (in words)", "setting": "[1]; dobutamine base separates from the alkaline medium", "value": "water-insoluble"},
      {"measurement": "contractile force", "setting": "[2]; [4]", "value": "increased contractile force"},
      {"measurement": "effect on blood pressure or heart rate", "setting": "[2]; [4]", "value": "without significant effect on blood pressure or heart rate"}
    ]},
    {"molecule": "CC(CCc1ccc2c(c1)OCO2)NCCc1ccc(O)c(O)c1", "note": "(centres unmarked) [N-[3-(3,4-methylenedioxyphenyl)-1-methylpropyl 2-(3,4-dihydroxyphenyl)ethylamine]", "values": [
      {"measurement": "cardiotonic properties", "setting": "[2]; [5]", "value": "cardiotonic properties similar to those ascribed to dobutamine"},
      {"measurement": "depressant or analgesic activity", "setting": "[2]; [5]", "value": "depressants or analgesics"}
    ]},
    {"molecule": "CC(CCc1ccc(O)cc1)NCCc1ccc(O)c(O)c1", "note": "(centres unmarked) [dobutamine hydrochloride]", "values": [
      {"measurement": "solubility", "setting": "[1]; water, saturated solution, mg/ml of dobutamine, read-out: dobutamine provided by a saturated solution", "value": "~25", "unit": "mg/mL"}
    ]},
    {"molecule": "CC(CCc1ccc(O)cc1)NCCc1ccc(O)c(O)c1", "note": "(stereo not drawn) [dobutamine salt of (-)-tartaric acid]", "values": [
      {"measurement": "stability of stored concentrate solutions", "setting": "[3]", "value": "≥ 12", "unit": "months"}
    ]}
  ]
}
